Assay results reported in patent US20080268041A1, “COMBINATION OF PROGESTERONE-RECEPTOR ANTAGONIST TOGETHER WITH NONE-STEROIDAL ANTIESTROGEN FOR USE IN BRCA MEDIATED DISEASES” (priority 2007, published 2008).

Assays:
progesterone receptor [1] = biological target: T1, progesterone receptor (Homo sapiens, UniProt P06401); conditions: Fuhrmann et al., J. Med. Chem. 2000; cited from earlier work
T1 sequence (P06401 1-933): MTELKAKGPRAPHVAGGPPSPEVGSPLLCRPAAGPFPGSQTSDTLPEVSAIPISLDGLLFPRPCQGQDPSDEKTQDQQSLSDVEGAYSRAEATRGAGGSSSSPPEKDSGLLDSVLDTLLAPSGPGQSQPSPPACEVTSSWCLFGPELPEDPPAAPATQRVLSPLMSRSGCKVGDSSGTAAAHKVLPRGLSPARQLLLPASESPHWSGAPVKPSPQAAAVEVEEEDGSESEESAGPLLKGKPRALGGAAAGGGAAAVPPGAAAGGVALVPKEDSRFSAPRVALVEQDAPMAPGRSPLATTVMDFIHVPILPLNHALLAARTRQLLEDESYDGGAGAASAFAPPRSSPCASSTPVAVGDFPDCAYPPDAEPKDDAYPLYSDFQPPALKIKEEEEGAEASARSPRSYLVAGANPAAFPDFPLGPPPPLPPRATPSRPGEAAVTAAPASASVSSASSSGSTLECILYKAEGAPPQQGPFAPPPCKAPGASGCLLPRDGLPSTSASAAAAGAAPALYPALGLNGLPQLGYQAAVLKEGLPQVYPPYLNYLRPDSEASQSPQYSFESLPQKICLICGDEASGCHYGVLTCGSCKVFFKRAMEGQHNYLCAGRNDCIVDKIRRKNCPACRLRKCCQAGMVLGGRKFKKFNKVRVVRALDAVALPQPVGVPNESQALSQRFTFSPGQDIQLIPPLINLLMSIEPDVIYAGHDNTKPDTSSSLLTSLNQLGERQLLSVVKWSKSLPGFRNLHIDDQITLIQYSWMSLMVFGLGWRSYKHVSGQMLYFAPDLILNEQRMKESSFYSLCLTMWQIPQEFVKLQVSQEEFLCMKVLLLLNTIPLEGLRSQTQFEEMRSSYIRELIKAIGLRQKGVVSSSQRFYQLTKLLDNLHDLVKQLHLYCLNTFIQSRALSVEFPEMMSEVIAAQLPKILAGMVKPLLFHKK

[2] = tested on: NMU-induced rat mammary carcinomas; assay: NMU-induced mammary tumor model in female rats, 4 weeks treatment; type: in vivo, female Sprague-Dawley rats; conditions: for Median tumor weight: 1 mg/kg p.o. daily for 4 weeks (combination 1 + 1 mg/kg), of 10 animals, control 15200, ovariectomy 0; for Tumor growth inhibition compared to control (procentual change of tumor area): 1 mg/kg p.o. each, 4 weeks, Kruskal-Wallis-test
Method: Tumors were induced by a single intravenous injection of NMU (50 mg/kg) in female Sprague-Dawley rats (Tierzucht Schönwalde, age 50-55 days). Rats with at least one established tumor with a size of minimal 150 mm^2 were treated for 4 weeks by
1) Solvent control, 2) Ovariectomy (at treatment start), 3) The progesterone receptor antagonist 11β-(4-acetylphenyl)-17β-hydroxy-17α(1,1,2,2,2-pentafluoroethyl)-estra-4,9-dien-3-one, 1 mg/kg p.o., 4) Tamoxifen, 1 mg/kg p.o., 5) The progesterone receptor antagonist 11β-(4-acetylphenyl)-17β-hydroxy-17α(1,1,2,2,2-pentafluoroethyl)-estra-4,9-dien-3-one, 1 mg/kg p.o. and Tamoxifen, 1 mg/kg p.o. daily.
As parameter for growth inhibition the procentual change of tumor area determined by weekly caliper measurements was used. For statistical analysis of intergroup differences of mean values the Kruskal-Wallis-test was used.

progesterone receptor [3] = biological target: T1, progesterone receptor; assay: Progesterone receptor protein expression/stability after siRNA knock down of BRCA1; type: cell-based
Description: (§1) Cell growth in comparison to untransfected and mock transfected cells was compared. In a second step cells were stimulated either with progesterone and/or with estrogens. […] The effects on progesterone receptor protein expression were further investigated.

[4] = tested on: MCF-10 mammary cells with BRCA1 and BRCA2 knock down; assay: Growth of MCF-10 mammary cells with siRNA knock down of BRCA1 and BRCA2, stimulated with progesterone and/or estrogens; type: cell-based; conditions: co-treatment, in the presence of progesterone
Method: MCF-10 mammary cells obtained from ATCC were treated with siRNA knocking down the BRCA1 and BRCA2 gene.
as §1

[5] = tested on: Brca1/p53-deficient mice mammary tumors; conditions: BRCA1- or BRCA2 inactivated in mammary glands; Poole et al., Science 2006; cited from earlier work

In the case of CC(=O)c1ccc([C@H]2C[C@@]3(C)[C@@H](CC[C@@]3(O)C(F)(F)C(F)(F)F)[C@@H]3CCC4=CC(=O)CCC4=C32)cc1 [11β-(4-acetylphenyl)-17β-hydroxy-17α-(1,1,2,2,2-pentafluoroethyl)-estra-4,9-dien-3-one], the Antiprogestagenic activity (progesterone receptor [1]) is given as “high antiprogestagenic activity”, the Median tumor weight [2] is given as 1800 mg and the “Tumor growth inhibition compared to control (procentual change of tumor area)” value [2] is given as “not significant different to the untreated control group”. The “Increased stability of progesterone receptor after BRCA1 knock down” value (progesterone receptor [3]) was “could be antagonized” and the “Growth/proliferation of BRCA1 knock down cells” value [4] was “able to antagonize the effects of BRCA1 knock down”.

For CC/C(=C(\c1ccccc1)c1ccc(OCCN(C)C)cc1)c1ccccc1 [Tamoxifen, reference compound], the Median tumor weight [2] was 2950 mg and the “Tumor growth inhibition compared to control (procentual change of tumor area)” value [2] was “not significant different to the untreated control group”.

For CC#C[C@]1(O)CC[C@H]2[C@@H]3CCC4=CC(=O)CCC4=C3[C@@H](c3ccc(N(C)C)cc3)C[C@@]21C [mifepristone], the “Development of mammary tumors in mice” value [5] is given as “blocks the development of mammary tumors”.
